Assay results published in patent publication US20030069169A1, “Co-administration of melanocortin receptor agonist and phosphodiesterase inhibitor for treatment of cyclic-AMP associated disorders” (priority 2001, published 2003).

How the values were obtained:
[1] = target: T1, human MC-1R (Homo sapiens, UniProt Q01726); experiment: MC-1R cAMP SPA assay in HBL cells; format: cell-based; details: read-out: potency as agonist of the MC-1R
T1 construct: HBL cells, a human melanoma cell line licensed from Prof; G. Ghanem; endogenous in cells; host or cells: HBL human melanoma cells
T1 sequence (Q01726 whole entry): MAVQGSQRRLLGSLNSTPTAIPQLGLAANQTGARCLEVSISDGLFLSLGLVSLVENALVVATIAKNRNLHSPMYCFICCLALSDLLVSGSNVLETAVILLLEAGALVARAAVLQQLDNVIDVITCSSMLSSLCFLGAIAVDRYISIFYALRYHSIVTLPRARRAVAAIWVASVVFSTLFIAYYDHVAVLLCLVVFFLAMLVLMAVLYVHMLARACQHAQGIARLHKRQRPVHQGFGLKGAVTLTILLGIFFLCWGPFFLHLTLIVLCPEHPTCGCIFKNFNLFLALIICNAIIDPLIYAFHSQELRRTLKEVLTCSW
Experimental: HBL cells, a human melanoma cell line licensed from Prof. G. Ghanem (Lab. of Oncology & Exp. Surgery, Free University of Brussels, Brussels, Belgium) were used as a source of the human MC-1R. cAMP was measured using the cAMP SPA Direct Screening Assay System from Amersham (RPA 559). 20,000 HBL cells were plated into each well of a half-area 96 well white plate and were used between 16-48 hours after plating. Cells were incubated at 37° C. for 15 minutes in 25 μM IBMX to inhibit phosphodieterase activity. As per kit instructions, Assay Buffer Concentrate was diluted 1 to 50 with dH2O to prepare Assay Buffer (50 mM acetate buffer containing 0.01% sodium azide). Vials containing rabbit anti-succinyl cAMP serum and the tracer, adenosine 3′,5′-cyclic phosphoric acid 2′-0-succinyl-3-[^125I] iodotyrosine methyl ester, were resuspended with 7.5 ml Assay Buffer. SPA anti-rabbit reagent (donkey anti-rabbit IgG coupled to SPA PVT beads) was resuspended with 15 ml Assay Buffer. All reagents were stored at 4° C. after reconstitution. Melanocortin ligands or compounds were prepared in DMSO and added to the IBMX-treated cells as 100×concentrated stocks. […] Plates were subsequently counted for 6 minutes per sample in a TopCount scintillation reader with background subtraction. Data was analyzed in relation to a cAMP standard curve.

[2] = test system: LPS-induced TNF-α production; experiment: endotoxin-induced TNF-α accumulation model in Balb/C mice; format: in vivo; details: for % Inhibition of LPS-induced TNF-α levels: balb/C mice, rolipram 10 ug/kg, NDP-MSH 2.5 mg/kg, alone or combined, co-administered with LPS by tail vein injection
Experimental: Melanocortin receptor agonists and cAMP-PDE inhibitors were evaluated for anti-inflammatory activity in vivo by using an endotoxin-induced TNF-α accumulation model in Balb/C mice. Compounds were administered either by s.c injection or co-injected with endotoxin in the tail vein. Both rolipram and melanocortin agonists inhibit endotoxin-induced TNF-α accumulation in this model.
FIG. 1 reports the results of administration of the compound of Example 11, below, in this model. Example 11 was administered by s.c. injection to five mice for each dose of 1.2 μmol/kg, 3.7 μmol/kg, 11.1 μmol/kg, 33.3 μmol/kg, and 100 μmol/kg. The compound was administered 1 hour prior to the LPS-induced challenge.
A second experiment was conducted in which the effect of the cAMP-PDE inhibitor rolipram and the melanocortin receptor agonist NDP-MSH was determined.
The four bar graphs of FIG. 2 reflect the inhibition in LPS-induced TNF-α a production in balb/C mice upon administration of (1) no agent (control); (2) 10 ug/kg ROLIPRAM (3) 2.5 mg/kg NDP-MSH and (4) 10 ug/kg ROLIPRAM in combination with 2.5 mg/kg NDP-MSH. Compounds were co-administered with LPS by tail vein injection. […] Administration of 2.5 mg/kg NDP-MSH inhibited TNF-α levels by 64%.

| EC50 [1] [nM] | Molecule | inhibition of endotoxin-induced TNF-α accumulation (in words) ([2]; Balb/C mice, s.c. injection or co-injected with endotoxin in the tail vein) | % Inhibition of LPS-induced TNF-α levels [2] [%] |
| --- | --- | --- | --- |
| ~20 | CCCC(=O)C1(c2ccccc2)CCN(C(=O)[C@@H](Cc2ccc(OC)cc2)NC(=O)[C@@H](N)Cc2cncn2C)CC1 [Example 11] | – | – |
| – | COc1ccc(C2CNC(=O)C2)cc1OC1CCCC1 (stereo not shown) [Rolipram] | inhibit | 47 |
| – | NDP-MSH | – | 64 |
